Experiments:
[1] = system: QTc interval; details: positive control; cited from earlier work
[2] = target: CYP2D6 (Homo sapiens, UniProt P10635); details: in vivo; cited from earlier work
[3] = in vivo; cited from earlier work
[4] = CYP2D6 inhibited; 100/(100-MP); over the course of multiple doses
[5] = target: L-type Ca^2+ currents (Homo sapiens, UniProt Q13936); details: cited from earlier work
[6] = target: IKr (Homo sapiens, UniProt Q12809); details: cited from earlier work
[7] = target: IKs (Homo sapiens, UniProt P51787); details: cited from earlier work
[8] = value inserted in K1 equation as (100-97)/100; cited from earlier work
[9] = value inserted in K1 equation; read-out: Cmax of the drug at a test dose; cited from earlier work

Sequence of IKr (Q12809 whole entry): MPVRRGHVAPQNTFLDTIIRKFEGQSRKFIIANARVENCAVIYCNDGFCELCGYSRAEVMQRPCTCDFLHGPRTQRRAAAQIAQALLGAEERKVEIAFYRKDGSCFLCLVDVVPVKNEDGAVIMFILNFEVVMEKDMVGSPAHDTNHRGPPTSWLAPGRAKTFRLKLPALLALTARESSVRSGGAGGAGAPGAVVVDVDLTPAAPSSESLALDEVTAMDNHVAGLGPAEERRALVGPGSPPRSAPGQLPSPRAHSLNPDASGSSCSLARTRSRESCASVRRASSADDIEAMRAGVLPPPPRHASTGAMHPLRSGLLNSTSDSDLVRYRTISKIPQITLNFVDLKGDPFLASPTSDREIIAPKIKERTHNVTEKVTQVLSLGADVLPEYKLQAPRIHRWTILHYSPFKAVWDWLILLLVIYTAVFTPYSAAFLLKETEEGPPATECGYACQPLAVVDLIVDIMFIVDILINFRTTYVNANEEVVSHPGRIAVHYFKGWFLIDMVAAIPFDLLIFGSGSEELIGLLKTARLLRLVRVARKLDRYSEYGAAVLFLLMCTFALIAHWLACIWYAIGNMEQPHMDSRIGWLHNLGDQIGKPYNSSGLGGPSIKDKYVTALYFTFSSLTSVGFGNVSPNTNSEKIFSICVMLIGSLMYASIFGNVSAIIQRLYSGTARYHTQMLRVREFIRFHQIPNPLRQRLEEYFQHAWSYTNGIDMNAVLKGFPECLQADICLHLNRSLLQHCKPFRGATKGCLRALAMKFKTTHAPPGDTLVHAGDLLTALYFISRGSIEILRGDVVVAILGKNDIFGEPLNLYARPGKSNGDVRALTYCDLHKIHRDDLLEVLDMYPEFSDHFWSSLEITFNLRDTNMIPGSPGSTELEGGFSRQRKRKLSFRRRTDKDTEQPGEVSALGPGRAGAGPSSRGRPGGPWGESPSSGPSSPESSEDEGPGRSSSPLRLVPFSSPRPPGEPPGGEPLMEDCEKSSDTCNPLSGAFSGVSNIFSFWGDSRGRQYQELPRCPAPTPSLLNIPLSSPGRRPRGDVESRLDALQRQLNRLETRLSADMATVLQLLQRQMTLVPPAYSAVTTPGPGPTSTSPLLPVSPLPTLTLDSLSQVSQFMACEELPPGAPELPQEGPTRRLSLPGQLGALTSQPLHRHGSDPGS
Sequence of CYP2D6 (P10635 whole entry): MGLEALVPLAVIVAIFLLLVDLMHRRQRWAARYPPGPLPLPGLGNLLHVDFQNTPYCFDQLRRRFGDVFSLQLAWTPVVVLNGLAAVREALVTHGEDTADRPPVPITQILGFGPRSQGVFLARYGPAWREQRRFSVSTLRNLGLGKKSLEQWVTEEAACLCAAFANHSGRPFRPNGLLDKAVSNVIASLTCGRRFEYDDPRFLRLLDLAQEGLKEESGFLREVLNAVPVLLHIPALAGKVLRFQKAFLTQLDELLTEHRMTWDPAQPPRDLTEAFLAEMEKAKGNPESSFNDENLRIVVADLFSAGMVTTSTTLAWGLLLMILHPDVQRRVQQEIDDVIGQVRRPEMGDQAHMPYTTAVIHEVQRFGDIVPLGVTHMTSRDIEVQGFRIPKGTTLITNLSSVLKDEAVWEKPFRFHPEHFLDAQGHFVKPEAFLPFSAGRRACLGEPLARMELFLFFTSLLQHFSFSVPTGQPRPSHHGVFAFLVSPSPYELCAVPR

COc1c(N2C[C@@H]3CCCN[C@@H]3C2)c(F)cc2c(=O)c(C(=O)O)cn(C3CC3)c12 [moxifloxacin]
QT prolongation added to the QTc interval [1]: 7-10 milliseconds

Cc1cccc(C)c1OCC(C)N (centres unmarked) [mexiletine]
cleared by CYP2D6 [2]: 75%
F (bioavailability) [3]: 95%
increase in concentration [4]: ~4 fold

CCCCc1oc2ccccc2c1C(=O)c1cc(I)c(OCCN(CC)CC)c(I)c1 [Amiodarone]
block of L-type Ca2+ currents [5]: blocks L-type Ca^2+ currents

Nc1nc(N)c2nc(-c3ccccc3)c(N)nc2n1 [triamterene]
block of IKr [6]: significant block
block of IKs [7]: significant block

CC1Cc2ccccc2N1NC(=O)c1ccc(Cl)c(S(N)(=O)=O)c1 (centres unmarked) [Indapamide]
block of IKs [7]: inhibit IKs

COc1ccccc1OCC(O)CN1CCN(CC(=O)Nc2c(C)cccc2C)CC1 (centres unmarked) [Ranolazine]
block of IKr [6]: blocks IKr

CC(C)(C)c1ccc(C(O)CCCN2CCC(C(O)(c3ccccc3)c3ccccc3)CC2)cc1 (centres unmarked) [terfenadine]
Protein binding of the drug [8]: 97%
Cmax [9]: 3.18 nM

From patent publication US10890577B2, “Treatment methods having reduced drug-related toxicity and methods of identifying the likelihood of patient harm from prescribed medications” (TABULA RASA HEALTHCARE, INC., priority 2016, dated 2021)
